Measured values: patent publication US5686486A, “4-hydroxy-benzopyran-2-ones and 4-hydroxy-cycloalkyl[b]pyran-2-ones useful to treat retroviral infections” (priority 1995, dated 1997)

Columns and labels:
HIV-1 protease [1] = target: T1, HIV-1 protease (Human immunodeficiency virus type 1 group M subtype B, UniProt P04585); experiment: biochemical; conditions: for inhibition at 0.123 µM: read-out: HIV-1 Protease % Inhib, dose 0.123 uM; for inhibition at 0.37 µM: read-out: HIV-1 Protease % Inhib, dose 0.370 uM; for inhibition at 1.1 µM: read-out: HIV-1 Protease % Inhib, dose 1.100 uM; for inhibition at 3.3 µM: read-out: HIV-1 Protease % Inhib, dose 3.300 uM; for inhibition at 10 µM: read-out: HIV-1 Protease % Inhib, dose 10.000 uM; for inhibition at 30 µM: read-out: HIV-1 Protease % Inhib, dose 30.000 uM
Method in brief: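 Biotinylated, FITC-labeled peptide substrate (20 μl of 0.2 μM) incubated with HIV-1 protease (10 μl of 0.1 μM) and compound in 0.1 M sodium acetate pH 5.5, 1.0 M NaCl, 0.05% NP-40, 1 h, room temperature, dark. Streptavidin beads then capture uncleaved substrate; filtered labeled product read by fluorescence, giving percent inhibition.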

HIV-1 protease [2] = target: T1, HIV-1 protease; experiment: biochemical; conditions: read-out: HIV-1 FITC KI
Method in brief: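 Ki from two-fold serial inhibitor dilutions (24–48 concentrations) with 40 nM HIV-1 protease stock and 200 μM substrate stock, 90 min at room temperature; stopped with avidin beads. Reference inhibitor run in parallel; Ki by nonlinear least-squares fit.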

O=C(NCc1ccc(S(=O)(=O)Nc2cccc(C(c3c(O)c4c(oc3=O)CCCCCC4)C3CC3)c2)s1)c1ccccc1 (stereo not shown) [Example 296, N-[[5-[[[3-[Cyclopropyl(5,6,7,8,9,10-hexahydro-4-hydroxy-2-oxo-2H-cycloocta[b]pyran-3-yl)methyl]phenyl]amino]sulfonyl]-2-thienyl]methyl]-benzamide]
inhibition at 0.123 µM (HIV-1 protease [1]): 14.6% | inhibition at 0.37 µM (HIV-1 protease [1]): 74.8% | inhibition at 1.1 µM (HIV-1 protease [1]): 95.5% | inhibition at 3.3 µM (HIV-1 protease [1]): 104% | inhibition at 10 µM (HIV-1 protease [1]): 108% | inhibition at 30 µM (HIV-1 protease [1]): 114% | Ki (HIV-1 protease [2]): 24 nM

O=c1oc2c(c(O)c1C(c1cccc(NS(=O)(=O)c3cc(S(=O)(=O)c4ccccc4)cs3)c1)C1CC1)CCCCCC2 (stereo not shown) [Example 298, N-[3-[Cyclopropyl(5,6,7,8,9,10-hexahydro-4-hydroxy-2-oxo-2H-cycloocta[b]pyran-3-yl)methyl]phenyl]4-(phenylsulfonyl)-2-thiophenesulfonamide]
inhibition at 0.123 µM (HIV-1 protease [1]): 67.4% | inhibition at 0.37 µM (HIV-1 protease [1]): 84.6% | inhibition at 1.1 µM (HIV-1 protease [1]): 94.6% | inhibition at 3.3 µM (HIV-1 protease [1]): 97.5% | inhibition at 10 µM (HIV-1 protease [1]): 101% | inhibition at 30 µM (HIV-1 protease [1]): 100% | Ki (HIV-1 protease [2]): 2.5 nM

O=c1oc2c(c(O)c1C(c1cccc(NS(=O)(=O)c3ccc(S(=O)(=O)c4ccccc4)s3)c1)C1CC1)CCCCCC2 (stereo not shown) [Example 299, N-[3-[Cyclopropyl(5,6,7,8,9,10-hexahydro-4-hydroxy-2-oxo-2H-cycloocta[b]pyran-3-yl)methyl]phenyl]-5-(phenylsulfonyl)-2-thiophenesulfonamide]
inhibition at 0.123 µM (HIV-1 protease [1]): 78.5% | inhibition at 0.37 µM (HIV-1 protease [1]): 97.8% | inhibition at 1.1 µM (HIV-1 protease [1]): 97.5% | inhibition at 3.3 µM (HIV-1 protease [1]): 91.7% | inhibition at 10 µM (HIV-1 protease [1]): 104% | inhibition at 30 µM (HIV-1 protease [1]): 98.4% | Ki (HIV-1 protease [2]): 2.3 nM

O=c1oc2c(c(O)c1C(c1cccc(NS(=O)(=O)c3ccc(Cl)s3)c1)C1CC1)CCCCCC2 (stereo not shown) [Example 301, 5-Chloro-N-[3-[cyclopropyl(5,6,7,8,9,10-hexahydro-4-hydroxy-2-oxo-2H-cycloocta[b]pyran-3-yl)methyl]phenyl]-2-thiophenesulfonamide]
inhibition at 0.123 µM (HIV-1 protease [1]): 74.7% | inhibition at 0.37 µM (HIV-1 protease [1]): 91.2% | inhibition at 1.1 µM (HIV-1 protease [1]): 102% | inhibition at 3.3 µM (HIV-1 protease [1]): 100% | inhibition at 10 µM (HIV-1 protease [1]): 104% | inhibition at 30 µM (HIV-1 protease [1]): 114% | Ki (HIV-1 protease [2]): 4.8 nM

O=c1oc2c(c(O)c1C(c1cccc(NS(=O)(=O)c3cc(Cl)c(Cl)s3)c1)C1CC1)CCCCCC2 (stereo not shown) [Example 302, 4,5-Dichloro-N-[3-[cyclopropyl(5,6,7,8,9,10-hexahydro-4-hydroxy-2-oxo-2H-cycloocta[b]pyran-3-yl)methyl]phenyl]-2-thiophenesulfonamide]
inhibition at 0.123 µM (HIV-1 protease [1]): 78.6% | inhibition at 0.37 µM (HIV-1 protease [1]): 97.8% | inhibition at 1.1 µM (HIV-1 protease [1]): 105% | inhibition at 3.3 µM (HIV-1 protease [1]): 113% | inhibition at 10 µM (HIV-1 protease [1]): 115% | inhibition at 30 µM (HIV-1 protease [1]): 112% | Ki (HIV-1 protease [2]): 2.7 nM

O=c1oc2c(c(O)c1C(c1cccc(NS(=O)(=O)c3cc(Br)c(Br)s3)c1)C1CC1)CCCCCC2 (stereo not shown) [Example 303, 4,5-Dibromo-N-[3-[cyclopropyl(5,6,7,8,9,10-hexahydro-4-hydroxy-2-oxo-2H-cycloocta[b]pyran-3-yl)methyl]phenyl]-2-thiophenesulfonamide]
inhibition at 0.123 µM (HIV-1 protease [1]): 67.4% | inhibition at 0.37 µM (HIV-1 protease [1]): 96.5% | inhibition at 1.1 µM (HIV-1 protease [1]): 97.7% | inhibition at 3.3 µM (HIV-1 protease [1]): 109% | inhibition at 10 µM (HIV-1 protease [1]): 110% | inhibition at 30 µM (HIV-1 protease [1]): 98% | Ki (HIV-1 protease [2]): 5 nM

O=c1oc2c(c(O)c1C(c1cccc(NS(=O)(=O)c3cc(Cl)sc3Cl)c1)C1CC1)CCCCCC2 (stereo not shown) [Example 304, 2,5-Dichloro-N-[3-[cyclopropyl(5,6,7,8,9,10-hexahydro-4-hydroxy-2-oxo-2H-cycloocta[b]pyran-3-yl)methyl]phenyl]-3-thiophenesulfonamide]
inhibition at 0.123 µM (HIV-1 protease [1]): 25.7% | inhibition at 0.37 µM (HIV-1 protease [1]): 60.2% | inhibition at 1.1 µM (HIV-1 protease [1]): 85.9% | inhibition at 3.3 µM (HIV-1 protease [1]): 97.8% | inhibition at 10 µM (HIV-1 protease [1]): 104% | inhibition at 30 µM (HIV-1 protease [1]): 95.6% | Ki (HIV-1 protease [2]): 27.9 nM

CC(=O)Nc1ccc(S(=O)(=O)Nc2cccc(C(c3c(O)c4c(oc3=O)CCCCCC4)C3CC3)c2)cc1 (stereo not shown) [Example 307, N-[4-[[[3-[Cyclopropyl(5,6,7,8,9,10-hexahydro-4-hydroxy-2-oxo-2H-cycloocta[b]pyran-3-yl)methyl]phenyl]amino]sulfonyl]phenyl]-acetamide]
inhibition at 0.123 µM (HIV-1 protease [1]): 19.5% | inhibition at 0.37 µM (HIV-1 protease [1]): 66.5% | inhibition at 1.1 µM (HIV-1 protease [1]): 85.2% | inhibition at 3.3 µM (HIV-1 protease [1]): 97.8% | inhibition at 10 µM (HIV-1 protease [1]): 105% | inhibition at 30 µM (HIV-1 protease [1]): 90.3% | Ki (HIV-1 protease [2]): 7.6 nM

O=c1oc2c(c(O)c1C(c1cccc(NS(=O)(=O)c3ccc(N=Nc4ccccc4)cc3)c1)C1CC1)CCCCCC2 (stereo not shown) [Example 308, N-[3-[Cyclopropyl(5,6,7,8,9,10-hexahydro-4-hydroxy-2-oxo-2H-cycloocta[b]pyran-3-yl)methyl]phenyl]4-(phenylazo)-benzenesulfonamide]
inhibition at 0.123 µM (HIV-1 protease [1]): 46.5% | inhibition at 0.37 µM (HIV-1 protease [1]): 70.4% | inhibition at 1.1 µM (HIV-1 protease [1]): 82.3% | inhibition at 3.3 µM (HIV-1 protease [1]): 91.3% | inhibition at 10 µM (HIV-1 protease [1]): 96.9% | inhibition at 30 µM (HIV-1 protease [1]): 86.8% | Ki (HIV-1 protease [2]): 3.1 nM

CN(C)c1ccc(N=Nc2ccc(S(=O)(=O)Nc3cccc(C(c4c(O)c5c(oc4=O)CCCCCC5)C4CC4)c3)cc2)cc1 (stereo not shown) [Example 309, N-[3-[Cyclopropyl(5,6,7,8,9,10-hexahydro-4-hydroxy-2-oxo-2H-cycloocta[b]pyran-3-yl)methyl]phenyl]-4-[[4-(dimethylamino)phenyl]azo]-benzenesulfonamide]
inhibition at 0.123 µM (HIV-1 protease [1]): 46.6% | inhibition at 0.37 µM (HIV-1 protease [1]): 67.5% | inhibition at 1.1 µM (HIV-1 protease [1]): 82.5% | inhibition at 3.3 µM (HIV-1 protease [1]): 76.5% | inhibition at 10 µM (HIV-1 protease [1]): 43.7% | inhibition at 30 µM (HIV-1 protease [1]): 19.2% | Ki (HIV-1 protease [2]): 5.8 nM

O=c1oc2c(c(O)c1C(c1cccc(NS(=O)(=O)c3ccc(-c4ccccn4)s3)c1)C1CC1)CCCCCC2 (stereo not shown) [Example 310, N-[3-[Cyclopropyl(5,6,7,8,9,10-hexahydro4-hydroxy-2-oxo-2H-cycloocta[b]pyran-3-yl)methyl]phenyl]-5-(2-pyridinyl)-2-thiophenesulfonamide]
inhibition at 0.123 µM (HIV-1 protease [1]): 46.2% | inhibition at 0.37 µM (HIV-1 protease [1]): 86.2% | inhibition at 1.1 µM (HIV-1 protease [1]): 94.9% | inhibition at 3.3 µM (HIV-1 protease [1]): 99% | inhibition at 10 µM (HIV-1 protease [1]): 103% | inhibition at 30 µM (HIV-1 protease [1]): 102% | Ki (HIV-1 protease [2]): 2.37 nM

Cc1c(Cl)cccc1S(=O)(=O)Nc1cccc(C(c2c(O)c3c(oc2=O)CCCCCC3)C2CC2)c1 (stereo not shown) [Example 311, 3-Chloro-N-[3-[cyclopropyl(5,6,7,8,9,10-hexahydro-4-hydroxy-2-oxo-2H-cycloocta[b]pyran-3-yl)methyl]phenyl]-2-methyl-benzenesulfonamide]
inhibition at 0.123 µM (HIV-1 protease [1]): 20.8% | inhibition at 0.37 µM (HIV-1 protease [1]): 71.2% | inhibition at 1.1 µM (HIV-1 protease [1]): 86.4% | inhibition at 3.3 µM (HIV-1 protease [1]): 92% | inhibition at 10 µM (HIV-1 protease [1]): 99.5% | inhibition at 30 µM (HIV-1 protease [1]): 99.5% | Ki (HIV-1 protease [2]): 6.33 nM

O=c1oc2c(c(O)c1C(c1cccc(NS(=O)(=O)c3ccc(OC(F)(F)F)cc3)c1)C1CC1)CCCCCC2 (stereo not shown) [Example 312, N-[3-[Cyclopropyl(5,6,7,8,9,10-hexahydro-4-hydroxy-2-oxo-2-cycloocta[b]pyran-3-yl)methyl]phenyl]-4-(trifluoromethoxy)-benzenesulfonamide]
inhibition at 0.123 µM (HIV-1 protease [1]): 48.2% | inhibition at 0.37 µM (HIV-1 protease [1]): 83.6% | inhibition at 1.1 µM (HIV-1 protease [1]): 89.7% | inhibition at 3.3 µM (HIV-1 protease [1]): 106% | inhibition at 10 µM (HIV-1 protease [1]): 114% | inhibition at 30 µM (HIV-1 protease [1]): 110% | Ki (HIV-1 protease [2]): 4 nM
